Experimental data as given in patent US6127333A, “Conjugates useful in the treatment of prostate cancer” (priority 1998, dated 2000).

Molecular target: T1, York PSA (enzymatically active free PSA) (Homo sapiens, UniProt P07288)
T1 construct: 50% cleavage of the noted oligopeptide-cytotoxic agent conjugates with enzymatically active free PSA
Assay: Recognition/cleavage of oligopeptide-vinca drug conjugates by free PSA
Assay type: biochemical
Conditions: PSA digestion buffer pH7.4, conjugate to PSA molar ratio 100 to 1, HPLC; when n > 1 value is an average
Description: Alternatively, the PSA digestion buffer utilized is 50 mM tris(hydroxymethyl)aminomethane pH7.4, 140 mM NaCl. The reaction is quenched after various reaction times by the addition of trifluoroacetic acid (TFA) to a final 1% (volume/volume). Alternatively the reaction is quenched with 10 mM ZnCl2. The quenched reaction was analyzed by HPLC on a reversed-phase C18 column using an aqueous 0.1%TFA/acetonitrile gradient. […] Unless otherwise indicated, the acetate salt of the conjugate was tested.

T1 sequence (P07288 25-261): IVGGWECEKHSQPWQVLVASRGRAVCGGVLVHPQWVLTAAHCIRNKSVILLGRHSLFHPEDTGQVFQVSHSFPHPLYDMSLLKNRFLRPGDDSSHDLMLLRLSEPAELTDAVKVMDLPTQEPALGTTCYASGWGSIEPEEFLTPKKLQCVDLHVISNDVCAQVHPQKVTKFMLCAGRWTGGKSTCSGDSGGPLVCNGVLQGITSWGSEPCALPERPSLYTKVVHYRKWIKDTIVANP

Substance | Time to 50% Substrate Cleavage by York PSA [min]
4-des-Acetylvinblastine-23-(N-Acetyl-Ser-Ser-Ser-Chg-Gln-Ser-Val-BDAM) amide acetate salt [Ac-SSSChgQSV-1,4-BDAM-(dAc)-VIN] | 10
4-des-Acetylvinblastine-23-(N-methoxy-diethyleneoxyacetyl-4-trans-L-Hyp-Ser-Ser-Chg-Gln-Ser-Val-BDAM) amide acetate salt | 14
